Results reported in PubChem BioAssay AID2743 (NMMLSC, 2010).
Active and inactive are the calls of the source.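 Rule for the calls: active = fitted half-maximal concentration for change in GFP expression of 33 µM or less; inactive = the rest.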

Experiment: potency of AGP1-GFP expression modulators in yeast, dose response, cell-based, flow cytometry, S. cerevisiae, MLPCN hits (AID 2743)
Settings: S. cerevisiae AGP1-GFP strain, flow cytometry GFP, 3 h; at 33 µM (top of the series)

SMILES | GFP fluorescence (kMESF)
C=CCOc1cccc(C(=O)/C=C2/C(=O)Nc3ccccc32)c1 | 43.2 kMESF (inactive)
Cc1ccc(NC(=O)c2cc(N3C(=O)C=CC3=O)ccc2Cl)cc1C | 23.9 kMESF (inactive)
COc1ccc(/C=C2\C(=O)ON=C2c2ccccc2)cc1 | 28 kMESF (inactive)
Cc1cccc(C(=O)NNC(=S)NC(=O)c2ccccc2)c1 | 44.8 kMESF (inactive)
O=C1C=C(c2ccccc2)C(=O)N1Nc1ccccc1 | 40.8 kMESF (inactive)
O=C1ON=C(c2ccccc2)/C1=C\c1ccco1 | 42.7 kMESF (inactive)
O=C(NNC(=S)NC(=O)C12CC3CC(CC(C3)C1)C2)c1ccncc1 | 33.2 kMESF (inactive)
COc1cccc(C(=O)Nc2nnc(-c3ccc(Cl)cc3)o2)c1 | 34.6 kMESF (inactive)
CCC1(c2ccccc2)ON(c2c(Br)cccc2Br)C1=O (centres undefined) | 28.9 kMESF (inactive)
COc1ccc(OC)c(S(=O)(=O)ON2C(=O)c3ccccc3C2=O)c1 | 39.4 kMESF (inactive)
Cc1cccc2c1NC(=O)/C2=C\C(=O)c1cccs1 | 43.9 kMESF (inactive)
CC(C)(C)n1nc(-c2ccc(Cl)cc2)c2c(N)ncnc21 | 39.9 kMESF (inactive)
COc1ccccc1[C@]1(C)ON(c2ccccc2C(F)(F)F)C1=O | 30.3 kMESF (inactive)
Cc1ccc(C(=O)O)cc1N=Cc1cc(Br)cc(Br)c1O | 27.3 kMESF (inactive)
CC(=O)N(C(C)=O)c1ncnc2c1c(-c1ccc(Cl)cc1)nn2C(C)(C)C | 36.6 kMESF (inactive)
N=C1S/C(=C\c2ccco2)C(=O)N1c1nccs1 | 40.4 kMESF (inactive)
CCOc1ccc(C(C)=O)cc1N1C(=O)C2C3C=CC(O3)C2C1=O (centres undefined) | 40.5 kMESF (inactive)
O=C(Oc1c(Cl)cc(Cl)c2cccnc12)c1ccco1 | 40.7 kMESF (inactive)
Cc1cc(C)c(S(=O)(=O)N2CCC(C(=O)NCc3ccc(Cl)cc3Cl)CC2)c(C)c1 | 37.4 kMESF (inactive)
COc1ccc(C2=CC3=C(Br)C(=O)C(C)(O)C(=O)C3=CO2)cc1 (centres undefined) | 2.12 kMESF (inactive)
N/C(=N\OC(=O)c1ccc(Cl)cc1Cl)c1ccccc1 | 27.3 kMESF (inactive)
CN(C)c1ccc(N=Cc2nc(-c3ccccc3)oc2OC(=O)c2cccc(Cl)c2)cc1 | 30.1 kMESF (inactive)
O=C(/C=C/c1cccc([N+](=O)[O-])c1)c1ccc([N+](=O)[O-])o1 | 10.4 kMESF (inactive)

SMILES | GFP fluorescence (kMESF)
Cc1ccc(C(c2cc(Cl)c3cccnc3c2O)N2CCN(C)CC2)cc1 (centres undefined) | 27.9 kMESF (inactive)
Cc1ccc(C2=NN(S(C)(=O)=O)C(c3ccc4c(c3)OCO4)C2)cc1 (centres undefined) | 44.1 kMESF (inactive)
O=C(Nc1ccc(NC(=O)c2cc3ccccc3o2)cc1)c1ccco1 | 44.8 kMESF (inactive)
Cc1cccc(Nc2nc(-c3ccccn3)cs2)n1 | 30.1 kMESF (inactive)
Nc1nc2ncc(CNc3ccc(C(=O)N[C@@H](CCC(=O)O)C(=O)O)cc3)nc2c(=O)[nH]1 | 29.1 kMESF (inactive)
CCCc1cc(=O)oc2cc(C)cc(OCC(=O)NC3CC3)c12 | 41 kMESF (inactive)
Cc1ccc(N2C(=O)CC(Sc3ncn[nH]3)C2=O)cc1C (centres undefined) | 49.6 kMESF (inactive)
Cc1cc(=O)oc2cc(Oc3ccc([N+](=O)[O-])cc3C(F)(F)F)ccc12 | 42.1 kMESF (inactive)
CCOC(=O)C1=C(O)c2ccccc2C(=O)/C1=C\c1ccc(C)cc1 | -4.85 kMESF (inactive)
CCOC(=O)C(C(=O)OCC)C(C(=O)OCC)N1CCOCC1 (centres undefined) | 41 kMESF (inactive)
Cc1ccc2nc(/C(C#N)=C/c3ccc(O)c(O)c3)[nH]c2c1 | 41.6 kMESF (inactive)
CCOC(=O)CS(=O)(=O)c1nc(-c2ccc(F)cc2)cc(C(F)(F)F)n1 | 50.7 kMESF (inactive)
CCc1cccc2sc(N3CCN(C(=O)c4ccc([N+](=O)[O-])o4)CC3)nc12 | 12.4 kMESF (inactive)
O=C(CCS(=O)(=O)c1ccccc1)Nc1nc(-c2ccccn2)cs1 | 35.9 kMESF (inactive)
CCCN1CCc2c(sc(NC(=S)NC(=O)c3ccccc3)c2C#N)C1 | 42 kMESF (inactive)
COc1ccc(N=Cc2nc(-c3ccccc3)oc2OC(C)=O)cc1 | 35 kMESF (inactive)
O=C(c1ccc(C(=O)N2CCCc3ccccc32)s1)N1CCCc2ccccc21 | 38.6 kMESF (inactive)
O=C(Cc1ccc(Cl)cc1)NNC(=S)NC(=O)c1cccs1 | 36.9 kMESF (inactive)
Cc1c(C)c2ccc(Oc3ccc([N+](=O)[O-])cc3C(F)(F)F)c(C)c2oc1=O | 33.9 kMESF (inactive)
CC[C@]1(c2ccccc2C)ON(c2ccccc2C(F)(F)F)C1=O | 38.9 kMESF (inactive)
O=C1ON=C(c2ccccc2)/C1=C/c1ccc(-c2ccccc2[N+](=O)[O-])o1 | 29.1 kMESF (inactive)
Oc1c(CN2CCN(c3ccccc3)CC2)cc(Br)c2cccnc12 | 39 kMESF (inactive)
Cc1ccccc1C(=O)NNC(=S)NC(=O)c1ccc(Cl)cc1Cl | 40.9 kMESF (inactive)

SMILES | GFP fluorescence (kMESF)
Oc1c(CN2CCN(c3ccc(F)cc3)CC2)cc(Cl)c2cccnc12 | 41.8 kMESF (inactive)
CCn1c(=O)c(C(C)=O)c(O)c2ccccc21 | 41.4 kMESF (inactive)
O=C1c2ccccc2C(=O)N1OS(=O)(=O)c1ccc(F)cc1 | 27 kMESF (inactive)
COc1ccc(C2=CC(=O)N(Nc3ccccc3)C2=O)cc1 | 39.9 kMESF (inactive)
CC(Oc1ccc2ccccc2c1)C(=O)NNC(=S)NC(=O)c1ccco1 (centres undefined) | 32.1 kMESF (inactive)
COc1ccc(CCNC2=C(Cl)C(=O)N(CCc3ccc(OC)c(OC)c3)C2=O)cc1OC | 41.5 kMESF (inactive)
COc1ccc(C(=O)NC(=S)NNC(=O)c2cnccn2)cc1 | 42.8 kMESF (inactive)
C/C(=N\Nc1ncnc2sc(C)c(C)c12)c1ccccn1 | 26.5 kMESF (inactive)
O=C(/C=C/c1ccc(Cl)c([N+](=O)[O-])c1)c1cccnc1 | 35.8 kMESF (inactive)
Cc1nn2c(-c3ccncc3)nnc2c2ccccc12 | 22.9 kMESF (inactive)
Cc1ccc(N/N=C(\C#N)C(N)=S)c(C)c1 | 38 kMESF (inactive)
Cc1ccc(/C=C2/SC(=S)N(C3CCCCC3)C2=O)o1 | 41.3 kMESF (inactive)
COc1cccc(/C=N/Nc2ncc(C(F)(F)F)cc2Cl)c1O | 34.3 kMESF (inactive)
CC(=O)[C@]1(O)Cc2c(O)c3c(c(O)c2[C@@H](O[C@H]2C[C@H](N)[C@H](O)[C@H](C)O2)C1)C(=O)c1ccccc1C3=O | 33.4 kMESF (inactive)
CCCc1ccc(OCC(=O)NNC(=S)NC(=O)c2ccco2)cc1 | 38.1 kMESF (inactive)
Cc1c(Br)c(=O)oc2c(Br)c(O)c(O)cc12 | 38 kMESF (inactive)
Cc1ccsc1/C=N/Nc1ncc(Cl)cc1Cl | 36 kMESF (inactive)
O=C(COc1ccccc1)NNC(=S)NC(=O)c1ccc(Cl)cc1Cl | 29.9 kMESF (inactive)
O=[N+]([O-])c1cc(CN2CCN(c3ccccc3)CC2)c(O)c2ncccc12 | 27 kMESF (inactive)
COc1ccc(NC(=O)/C(Cl)=C(/Cl)S(=O)Cc2ccccc2)cn1 (centres undefined) | 38.3 kMESF (inactive)
O=C(/C=C/c1ccccc1)NC(=S)NNC(=O)Cc1cccs1 | 41.4 kMESF (inactive)
CC(=O)SC(C[N+](=O)[O-])c1cn(C(C)=O)c2ccccc12 (centres undefined) | 36.3 kMESF (inactive)
COc1cc(/C=C2\C(=O)ON=C2c2ccc(Cl)cc2)ccc1O | 33 kMESF (inactive)

SMILES | GFP fluorescence (kMESF)
O=[N+]([O-])c1ccc(-c2cn3nc(-c4ccccc4)c(-c4ccccc4)nc3n2)cc1 | 39.6 kMESF (inactive)
Cc1cc(C(=O)COC(=O)c2ccc[nH]c2=O)c(C)n1-c1ccccc1F | 24.1 kMESF (inactive)
O=C1c2cccc3c([N+](=O)[O-])ccc(c23)C(=O)N1O | 40.9 kMESF (inactive)
CCOc1ccc(N/N=C(/C#N)C(N)=O)cc1 | 54.7 kMESF (inactive)
Oc1ccc(Br)cc1/C=N/Nc1ccccn1 | 36.6 kMESF (inactive)
O=c1oc2ccccc2c(O)c1[C@H]1c2ccc(O)cc2Oc2c1c(=O)oc1ccccc21 | 36.3 kMESF (inactive)
Cc1ccc(C(=O)Sc2cccccc2=O)cc1 | 33 kMESF (inactive)
[O-][n+]1cccc2c(Br)cc(Br)c(O)c21 | 50.1 kMESF (inactive)
Cc1[nH][nH]c(=O)c1C(c1ccc(-c2ccc(Cl)cc2)o1)c1c(C)[nH][nH]c1=O | 39.2 kMESF (inactive)
Oc1c(C(Nc2nc3ccccc3s2)c2ccco2)ccc2cccnc12 (centres undefined) | 39.7 kMESF (inactive)
O=C(c1ccc(Cl)c([N+](=O)[O-])c1)N1CCN(c2ccccc2)CC1 | 62.6 kMESF (inactive)
Cc1cccc(N=Nc2ccc(O)c3ncccc23)c1 | 40.1 kMESF (inactive)
CC1=C/C(=N\OS(=O)(=O)c2ccccc2)C(C)=CC1=O | 34.7 kMESF (inactive)
C#CCOCCOCCOCCNc1nc(N2CCN(C(=O)CCCCCCCCCCNC(=O)[C@@H](CCC(=O)O)n3cc(CCCCCN)nn3)CC2)nc(N2CCN(C(=O)CCCCCCCCCCNC(=O)[C@H](CCCCN)n3cc(C[C@@H](C)CC)nn3)CC2)n1 | 51.4 kMESF (inactive)
CCc1ccc(/C=C/C(=O)c2cc(Br)ccc(=O)c2O)cc1 | 22.2 kMESF (inactive)
COc1ccc([N+](=O)[O-])c(S(=O)(=O)c2ccc(Cl)cc2)n1 | 37.1 kMESF (inactive)
O=C(NC(=S)Nc1ccc2oc(=O)ccc2c1)c1cccc(Cl)c1 | 29.8 kMESF (inactive)
O=C(/C=C/c1ccccn1)c1ccc(Br)cc1O | 20.4 kMESF (inactive)
COc1ccc(N2C(=O)C(Cl)=C(Oc3cccc(OC)c3)C2=O)cc1 | 38.8 kMESF (inactive)
N#Cc1ccc(N=c2ssnc2Cl)cc1 | 33.2 kMESF (inactive)
